Measured values: patent US20230016424A1, “HYBRID AMIDE DERIVATIVES OF AMPHOTERICIN B” (The Board of Trustees of the University of Illinois, priority 2019, published 2023)

What follows are molecules tested on C. albicans SN250, C. albicans, C. krusei, C. glabrata, C. tropicalis, A. fumigatus 91, 1163, 1100 (assay: Average MIC over the tested strains). Settings: Table 7, C16 amide AmB variants.
Type: cell-based

SMILES	MIC (Average Minimum Inhibition Concentration) [µM]
CC1C=CC=CC=CC=CC=CC=CC=CC(OC2OC(C)C(O)C(N)C2O)CC2OC(O)(CC(O)CC(O)C(O)CCC(O)CC(O)CC(=O)OC(C)C(C)C1O)CC(O)C2C(=O)NCC1CCCO1 (stereo not shown) [EZ]	0.516
O=CO [FA]	0.516
CC1C=CC=CC=CC=CC=CC=CC=CC(OC2OC(C)C(O)C(N)C2O)CC2OC(O)(CC(O)CC(O)C(O)CCC(O)CC(O)CC(=O)OC(C)C(C)C1O)CC(O)C2C(=O)NC1CN(C(N)=O)C1 (stereo not shown) [FB]	0.516
COC(=O)C1(NC(=O)C2C(O)CC3(O)CC(O)CC(O)C(O)CCC(O)CC(O)CC(=O)OC(C)C(C)C(O)C(C)C=CC=CC=CC=CC=CC=CC=CC(OC4OC(C)C(O)C(N)C4O)CC2O3)CNC1 (stereo not shown) [FC]	0.516
CC1C=CC=CC=CC=CC=CC=CC=CC(OC2OC(C)C(O)C(N)C2O)CC2OC(O)(CC(O)CC(O)C(O)CCC(O)CC(O)CC(=O)OC(C)C(C)C1O)CC(O)C2C(=O)NCCOCC(N)=O (stereo not shown) [FD]	0.516
CC1C=CC=CC=CC=CC=CC=CC=CC(OC2OC(C)C(O)C(N)C2O)CC2OC(O)(CC(O)CC(O)C(O)CCC(O)CC(O)CC(=O)OC(C)C(C)C1O)CC(O)C2C(=O)N1CCC(N)C1 (stereo not shown) [FE]	0.531
CC1C=CC=CC=CC=CC=CC=CC=CC(OC2OC(C)C(O)C(N)C2O)CC2OC(O)(CC(O)CC(O)C(O)CCC(O)CC(O)CC(=O)OC(C)C(C)C1O)CC(O)C2C(=O)NCCCCCO (stereo not shown) [FF]	0.531
CC1C=CC=CC=CC=CC=CC=CC=CC(OC2OC(C)C(O)C(N)C2O)CC2OC(O)(CC(O)CC(O)C(O)CCC(O)CC(O)CC(=O)OC(C)C(C)C1O)CC(O)C2C(=O)NC1(C(N)=O)CC1 (stereo not shown) [FG]	0.531
CC1C=CC=CC=CC=CC=CC=CC=CC(OC2OC(C)C(O)C(N)C2O)CC2OC(O)(CC(O)CC(O)C(O)CCC(O)CC(O)CC(=O)OC(C)C(C)C1O)CC(O)C2C(=O)N1CCNC(=O)C1 (stereo not shown) [FH]	0.531
CC1C=CC=CC=CC=CC=CC=CC=CC(OC2OC(C)C(O)C(N)C2O)CC2OC(O)(CC(O)CC(O)C(O)CCC(O)CC(O)CC(=O)OC(C)C(C)C1O)CC(O)C2C(=O)NC1CC(N)C(O)C(O)C1O (stereo not shown) [FI]	0.172
CC(O)CNC(=O)C1C(O)CC2(O)CC(O)CC(O)C(O)CCC(O)CC(O)CC(=O)OC(C)C(C)C(O)C(C)C=CC=CC=CC=CC=CC=CC=CC(OC3OC(C)C(O)C(N)C3O)CC1O2 (stereo not shown) [FJ]	0.195
CC1C=CC=CC=CC=CC=CC=CC=CC(OC2OC(C)C(O)C(N)C2O)CC2OC(O)(CC(O)CC(O)C(O)CCC(O)CC(O)CC(=O)OC(C)C(C)C1O)CC(O)C2C(=O)NC1C(O)OC(CO)C(O)C1O (stereo not shown) [FL]	0.227
CC1C=CC=CC=CC=CC=CC=CC=CC(OC2OC(C)C(O)C(N)C2O)CC2OC(O)(CC(O)CC(O)C(O)CCC(O)CC(O)CC(=O)OC(C)C(C)C1O)CC(O)C2C(=O)NC(CO)C(N)=O (stereo not shown) [FN]	0.238
CC1C=CC=CC=CC=CC=CC=CC=CC(OC2OC(C)C(O)C(N)C2O)CC2OC(O)(CC(O)CC(O)C(O)CCC(O)CC(O)CC(=O)OC(C)C(C)C1O)CC(O)C2C(=O)NC1CC(CO)C(O)C1O (stereo not shown) [FS]	2.81
CC1C=CC=CC=CC=CC=CC=CC=CC(OC2OC(C)C(O)C(N)C2O)CC2OC(O)(CC(O)CC(O)C(O)CCC(O)CC(O)CC(=O)OC(C)C(C)C1O)CC(O)C2C(=O)NC1C(O)C(O)OC(CO)C1O (stereo not shown) [FT]	0.289
CC1C=CC=CC=CC=CC=CC=CC=CC(OC2OC(C)C(O)C(N)C2O)CC2OC(O)(CC(O)CC(O)C(O)CCC(O)CC(O)CC(=O)OC(C)C(C)C1O)CC(O)C2C(=O)NC1C(O)OCC(O)C1O (stereo not shown) [FU]	0.289
CC1C=CC=CC=CC=CC=CC=CC=CC(OC2OC(C)C(O)C(N)C2O)CC2OC(O)(CC(O)CC(O)C(O)CCC(O)CC(O)CC(=O)OC(C)C(C)C1O)CC(O)C2C(=O)NCC(O)C(O)C(O)C(O)CO (stereo not shown) [FW]	0.313
CC1C=CC=CC=CC=CC=CC=CC=CC(OC2OC(C)C(O)C(N)C2O)CC2OC(O)(CC(O)CC(O)C(O)CCC(O)CC(O)CC(=O)OC(C)C(C)C1O)CC(O)C2C(=O)NCCn1cncn1 (stereo not shown) [FY]	0.316
CC1C=CC=CC=CC=CC=CC=CC=CC(OC2OC(C)C(O)C(N)C2O)CC2OC(O)(CC(O)CC(O)C(O)CCC(O)CC(O)CC(=O)OC(C)C(C)C1O)CC(O)C2C(=O)NC(CC(N)=O)C(N)=O (stereo not shown) [FZ]	0.316
CC1C=CC=CC=CC=CC=CC=CC=CC(OC2OC(C)C(O)C(N)C2O)CC2OC(O)(CC(O)CC(O)C(O)CCC(O)CC(O)CC(=O)OC(C)C(C)C1O)CC(O)C2C(=O)NCCCO (stereo not shown) [GA]	0.320
CC1C=CC=CC=CC=CC=CC=CC=CC(OC2OC(C)C(O)C(N)C2O)CC2OC(O)(CC(O)CC(O)C(O)CCC(O)CC(O)CC(=O)OC(C)C(C)C1O)CC(O)C2C(=O)NC1CCNC1=O (stereo not shown) [GC]	0.320
CC1C=CC=CC=CC=CC=CC=CC=CC(OC2OC(C)C(O)C(N)C2O)CC2OC(O)(CC(O)CC(O)C(O)CCC(O)CC(O)CC(=O)OC(C)C(C)C1O)CC(O)C2C(=O)NC(CO)C(N)=O (stereo not shown) [GF]	0.324
CC1C=CC=CC=CC=CC=CC=CC=CC(OC2OC(C)C(O)C(N)C2O)CC2OC(O)(CC(O)CC(O)C(O)CCC(O)CC(O)CC(=O)OC(C)C(C)C1O)CC(O)C2C(=O)NC1(C(N)=O)CNC1 (stereo not shown) [GG]	0.328
CC1C=CC=CC=CC=CC=CC=CC=CC(OC2OC(C)C(O)C(N)C2O)CC2OC(O)(CC(O)CC(O)C(O)CCC(O)CC(O)CC(=O)OC(C)C(C)C1O)CC(O)C2C(=O)NCC(O)CO (stereo not shown) [GH]	0.329
CNC(=O)C1C(O)CC2(O)CC(O)CC(O)C(O)CCC(O)CC(O)CC(=O)OC(C)C(C)C(O)C(C)C=CC=CC=CC=CC=CC=CC=CC(OC3OC(C)C(O)C(N)C3O)CC1O2 (stereo not shown) [GI]	0.336
CC(NC(=O)C1C(O)CC2(O)CC(O)CC(O)C(O)CCC(O)CC(O)CC(=O)OC(C)C(C)C(O)C(C)C=CC=CC=CC=CC=CC=CC=CC(OC3OC(C)C(O)C(N)C3O)CC1O2)C(N)=O (stereo not shown) [GJ]	0.336
CC1C=CC=CC=CC=CC=CC=CC=CC(OC2OC(C)C(O)C(N)C2O)CC2OC(O)(CC(O)CC(O)C(O)CCC(O)CC(O)CC(=O)OC(C)C(C)C1O)CC(O)C2C(=O)NC1CCCC(O)C1 (stereo not shown) [GM]	0.344
CNC(=O)CNC(=O)C1C(O)CC2(O)CC(O)CC(O)C(O)CCC(O)CC(O)CC(=O)OC(C)C(C)C(O)C(C)C=CC=CC=CC=CC=CC=CC=CC(OC3OC(C)C(O)C(N)C3O)CC1O2 (stereo not shown) [GN]	0.344
